Where two headings read alike, the source gives them in different places. Where a SMILES comes first, the peptide text is derived from it. Bridges are numbered along the chain shown (N, C = ends). [ ]: non-standard residue; d: D form.
Columns and labels:
[1] = target: T1, P-selectin (Homo sapiens, UniProt P16109); experiment: Inhibition of human neutrophil adhesion to purified P-selectin immobilized on plastic wells; assay type: cell-based; settings: inhibiting the binding of human neutrophils to P-selectin
T1 construct: P-selectin is isolated from human platelet lysates; from tissue; host or cells: human platelets (outdated platelet packs from a blood bank)
T1 sequence (P16109 42-830): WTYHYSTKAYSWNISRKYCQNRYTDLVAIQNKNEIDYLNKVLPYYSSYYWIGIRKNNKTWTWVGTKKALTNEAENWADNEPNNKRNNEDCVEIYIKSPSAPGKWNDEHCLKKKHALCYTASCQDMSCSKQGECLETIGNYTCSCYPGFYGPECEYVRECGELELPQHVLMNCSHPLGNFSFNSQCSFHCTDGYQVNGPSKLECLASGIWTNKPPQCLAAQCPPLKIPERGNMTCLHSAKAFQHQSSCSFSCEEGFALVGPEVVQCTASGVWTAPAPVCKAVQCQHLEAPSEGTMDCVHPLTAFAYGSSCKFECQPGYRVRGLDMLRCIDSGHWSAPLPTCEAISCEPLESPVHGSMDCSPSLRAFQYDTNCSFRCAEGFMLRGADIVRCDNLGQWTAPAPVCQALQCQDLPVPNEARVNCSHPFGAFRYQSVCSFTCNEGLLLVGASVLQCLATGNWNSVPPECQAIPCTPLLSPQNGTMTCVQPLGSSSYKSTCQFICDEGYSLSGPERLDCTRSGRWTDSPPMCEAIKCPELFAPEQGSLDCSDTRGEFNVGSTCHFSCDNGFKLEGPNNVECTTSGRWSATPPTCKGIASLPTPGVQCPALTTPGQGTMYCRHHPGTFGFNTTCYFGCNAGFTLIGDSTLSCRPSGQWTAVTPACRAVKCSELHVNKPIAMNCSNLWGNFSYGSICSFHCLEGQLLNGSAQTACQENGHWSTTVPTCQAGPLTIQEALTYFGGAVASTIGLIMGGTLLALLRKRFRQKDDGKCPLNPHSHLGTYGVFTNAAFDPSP
In short: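 Isolated human neutrophils (2×10^5 per well) in HBSS with Ca2+/Mg2+ and HSA added to wells coated overnight at 4° C with platelet-derived P-selectin (5 micrograms/mL), HSA-blocked; 20 min at 22° C. Nonadherent cells removed by inverted centrifugation at 150 g; adherent cells quantified by myeloperoxidase activity.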

[2] = system: neutrophil influx in thioglycolate-induced peritonitis; experiment: Inhibition of neutrophil influx in a rat model of thioglycolate-induced peritonitis; assay type: in vivo
Experimental: CD-1 rats (175-200 g) were injected i.p. with 10 ml thioglycollate medium (BBL #21195/21196 lot#H1KBGP). At -5 minutes, 1.5 hours, and 3.5 hours post thioglycollate injection 5 rats were injected with D-arginyl-D-lysyl-cyclo(D-cysteinyl-glycyl-phenylalanyl-D-cysteinyl)-D-tryptophyl-D-threonyl-D-tryptophyl-D-valineamide (Preferred peptide (19)) (0.75 mls at -5, 0.25 mls at 1.5 and 0.25 mls at 3.5). 5 rats were injected with vehicle at the same time points (0.75 mls at -5, 0.50 mls at 1.5, and 0.25 mls at 3.5). 5 rats received thiogycollate only and served as controls. At 4 hours post thioglycollate injection all animals were sacrificed by CO2 asphyxiation. Neutrophils were harvested by flushing the peritoneal cavity with 50 mls of Hanks balanced salt solution w/o Ca and Mg (JHR Biosciences 55-02178P Lot# IL3697) containing 0.3% ultrapure EDTA (JT Baker 4040-01 lot# D42704). White cells were then counted using the Danam Vet 8 cell counter.

[3] = disulfide bond, water

Row | Structure (SMILES) | IC50 [1] [µM] | decrease in neutrophil influx in response to thioglycolate stimulation ([2]; CD-1 rats, thioglycollate i.p., peptide injected at -5 minutes, 1.5 hours and 3.5 hours, peritoneal cells counted at 4 hours) [%] | inhibition of neutrophil influx (result in words) ([2]; rat thioglycolate-induced peritonitis, FIG. III) | ring closure, yield of all isomers ([3]; from CC(C)[C@@H](NC(=O)[C@@H](Cc1c[nH]c2ccccc12)NC(=O)[C@H](NC(=O)[C@@H](Cc1c[nH]c2ccccc12)NC(=O)[C@@H](CS)NC(=O)[C@H](Cc1ccccc1)NC(=O)[C@H](Cc1c[nH]cn1)NC(=O)[C@@H](CS)NC(=O)[C@@H](CCCCN)NC(=O)[C@H](N)CCCNC(=N)N)[C@H](C)O)C(N)=O, DMSO, 0.714 mM) [%] | ring closure, yield of all isomers ([3]; from CC(C)[C@@H](NC(=O)[C@@H](Cc1c[nH]c2ccccc12)NC(=O)[C@H](NC(=O)[C@@H](Cc1c[nH]c2ccccc12)NC(=O)[C@@H](CS)NC(=O)[C@H](CC(=O)O)NC(=O)CNC(=O)[C@@H](CS)NC(=O)[C@@H](CCCCN)NC(=O)[C@H](N)CCCNC(=N)N)[C@H](C)O)C(N)=O, Cu wire, dilute NH4OH, pH 8, 3.19 mM, 20.0 h) [%]
1 | CC(C)[C@@H](NC(=O)[C@@H](Cc1c[nH]c2ccccc12)NC(=O)[C@H](NC(=O)[C@@H](Cc1c[nH]c2ccccc12)NC(=O)[C@H]1CSSC[C@@H](NC(=O)[C@@H](CCCCN)NC(=O)[C@H](N)CCCNC(=N)N)C(=O)NCC(=O)N[C@@H](Cc2ccccc2)C(=O)N1)[C@H](C)O)C(N)=O [(19)] (H-[dR][dK][dC]GF[dC][dW][dT][dW][dV]-NH2; disulfide 3-6) | 6 | 67 | – | – | –
2 | CC(C)[C@@H](NC(=O)[C@@H](Cc1c[nH]c2ccccc12)NC(=O)[C@H](NC(=O)[C@@H](Cc1c[nH]c2ccccc12)NC(=O)[C@H]1CSSC[C@@H](NC(=O)[C@@H](CCCCN)NC(=O)[C@H](N)CCCNC(=N)N)C(=O)NCC(=O)N[C@@H](Cc2ccccc2)C(=O)N1)[C@H](C)O)C(N)=O [Preferred peptide (19), D-Arginyl-D-lysyl-cyclo(D-cysteinyl-glycyl-phenylalanyl-D-cysteinyl-)-D-tryptophyl-D-threonyl-D-tryptophyl-D-valine-amide] (H-[dR][dK][dC]GF[dC][dW][dT][dW][dV]-NH2; disulfide 3-6) | – | – | inhibition of neutrophil influx | – | –
3 | CC(C)[C@@H](NC(=O)[C@@H](Cc1c[nH]c2ccccc12)NC(=O)[C@H](NC(=O)[C@@H](Cc1c[nH]c2ccccc12)NC(=O)[C@H]1CSSC[C@@H](NC(=O)[C@@H](CCCCN)NC(=O)[C@H](N)CCCNC(=N)N)C(=O)N[C@@H](Cc2c[nH]cn2)C(=O)N[C@@H](Cc2ccccc2)C(=O)N1)[C@H](C)O)C(N)=O [(94)] (H-[dR][dK][dC]HF[dC][dW][dT][dW][dV]-NH2; disulfide 3-6) | 2.2 | – | – | 10.7 | –
4 | CC(C)[C@@H](NC(=O)[C@@H](Cc1c[nH]c2ccccc12)NC(=O)[C@H](NC(=O)[C@@H](Cc1c[nH]c2ccccc12)NC(=O)[C@H]1CSSC[C@@H](NC(=O)[C@@H](CCCCN)NC(=O)[C@H](N)CCCNC(=N)N)C(=O)NCC(=O)N[C@@H](CC(=O)O)C(=O)N1)[C@H](C)O)C(N)=O [(42)] (H-[dR][dK][dC]GD[dC][dW][dT][dW][dV]-NH2; disulfide 3-6) | 944 | – | – | – | 9.7

From patent publication US5753617A, “Peptide inhibitors of cellular adhesion” (Centocor, Inc., priority 1995, dated 1998)
